Measured values: patent publication US3932383A, “9-Dihydroniddamycin A compounds and related 3-(O)-esters and the process for their preparation” (Abbott Laboratories, priority 1974, dated 1976)
Values after ≈ are worked out from the molar mass of the structure shown.

How the values were obtained:
Format in all cases: cell-based
[1] = system: Streptococcus pyogenes C203; test: two-fold tube dilution test; conditions: brain-heart infusion broth, 24 hours at 37° C., read-out: Minimum Inhibitory Concentration
Protocol: (§1) Three niddamycin and two dihydroniddamycin compounds were tested for their activity against Streptococcus pyogenes C203, Diplococcus pneumoniae 6301 and Mycoplasma pneumoniae FH.
(§2) A standard two-fold tube dilution test was used. The medium and inoculum were varied with each culture.
In the test for activity against Streptococcus pyrogenes C203, 5 ml. portions of brain-heart infusion broth were used with 0.1 ml. of a 1:100 dilution culture. The test was incubated for 24 hours at 37° C.

[2] = system: Mycoplasma pneumoniae FH; test: two-fold tube dilution test; conditions: 144 h, PPLO broth, 6 days at 37° C., read-out: Minimum Inhibitory Concentration
Protocol: as §1, §2
In the test for activity against Mycoplasma pneumoniae FH, 4.5 ml. portions of PPLO broth were used with 0.5 ml. of a 1:100 dilution culture. the test was incubated for 6 days at 37° C.

[3] = system: Escherichia coli Juhl; test: agar two-fold dilution test; conditions: 37° C., read-out: Minimum Inhibitory Concentration
Protocol: (§3) Two niddamycin derivatives were tested for their activity against 21 organisms.
(§4) An agar dilution two-fold dilution test was used for the first 14 bacterial organisms, while the remaining seven were tested by means of a two-fold tube dilution method. The incubation for all the tests was carried out at 37° C.
(§5) The niddamycin base compound (M-188 ) was used as the control compound.

[4] = system: Klebsiella pneumoniae 10031; test: agar two-fold dilution test; conditions: 37° C., read-out: Minimum Inhibitory Concentration
Protocol: as §3, §4, §5

[5] = system: Pasteurella multocida 10544; test: agar two-fold dilution test; conditions: 37° C., read-out: Minimum Inhibitory Concentration
Protocol: as §3, §4, §5

[6] = system: Proteus mirabilis Finland No. 9; test: agar two-fold dilution test; conditions: 37° C., read-out: Minimum Inhibitory Concentration
Protocol: as §3, §4, §5

[7] = system: Proteus vulgaris Abbott JJ; test: agar two-fold dilution test; conditions: 37° C., read-out: Minimum Inhibitory Concentration
Protocol: as §3, §4, §5

[8] = system: Pseudomonas aeruginosa BMH No. 10; test: agar two-fold dilution test; conditions: BMHNO.10, 37° C., read-out: Minimum Inhibitory Concentration
Protocol: as §3, §4, §5

[9] = system: Salmonella typhimurium Ed No. 9; test: agar two-fold dilution test; conditions: Salmonella enterica, 37° C., read-out: Minimum Inhibitory Concentration
Protocol: as §3, §4, §5

[10] = system: Shigella sonnei 9290; test: agar two-fold dilution test; conditions: 37° C., read-out: Minimum Inhibitory Concentration
Protocol: as §3, §4, §5

[11] = system: Staphylococcus aureus 9144; test: agar two-fold dilution test; conditions: 37° C., read-out: Minimum Inhibitory Concentration
Protocol: as §3, §4, §5

[12] = system: Staphylococcus aureus Smith ER; test: agar two-fold dilution test; conditions: read-out: Minimum Inhibitory Concentration
Protocol: as §3, §4, §5

[13] = system: Staphylococcus aureus Smith; test: agar two-fold dilution test; conditions: 37° C., read-out: Minimum Inhibitory Concentration
Protocol: as §3, §4, §5

[14] = system: Staphylococcus aureus Wise 155; test: agar two-fold dilution test; conditions: WISE155, 37° C., read-out: Minimum Inhibitory Concentration
Protocol: as §3, §4, §5

[15] = system: Streptococcus faecalis 10541; test: agar two-fold dilution test; conditions: Enterococcus faecalis, 37° C., read-out: Minimum Inhibitory Concentration
Protocol: as §3, §4, §5

[16] = system: Streptococcus pyogenes Roper; test: agar two-fold dilution test; conditions: 37° C., read-out: Minimum Inhibitory Concentration
Protocol: as §3, §4, §5

[17] = system: Crithidia fasciculata; test: two-fold tube dilution method; conditions: 37° C., read-out: Minimum Inhibitory Concentration
Protocol: as §3, §4, §5

[18] = system: Haemophilus influenzae 9334; test: two-fold tube dilution method; conditions: 37° C., read-out: Minimum Inhibitory Concentration
Protocol: as §3, §4, §5

[19] = system: Mycoplasma gallispeticum S6; test: two-fold tube dilution method; conditions: 37° C., read-out: Minimum Inhibitory Concentration
Protocol: as §3, §4, §5

[20] = system: Mycoplasma granularum 19168; test: two-fold tube dilution method; conditions: Acholeplasma granularum, 37° C., read-out: Minimum Inhibitory Concentration
Protocol: as §3, §4, §5

[21] = system: Mycoplasma hyorhinis 17981; test: two-fold tube dilution method; conditions: 37° C., read-out: Minimum Inhibitory Concentration
Protocol: as §3, §4, §5

[22] = system: Mycoplasma pneumoniae FH; test: two-fold tube dilution method; conditions: 37° C. (Table 2), read-out: Minimum Inhibitory Concentration
Protocol: as §3, §4, §5

[23] = system: Trichomonas vaginalis C1M1; test: two-fold tube dilution method; conditions: 37° C., read-out: Minimum Inhibitory Concentration
Protocol: as §3, §4, §5

[24] = system: A. versicolor; test: standard FG (fungi) screening program; conditions: Aspergillus versicolor, read-out: Minimum Inhibitory Concentration
Protocol: (§6) The samples were also tested on the standard FG (fungi) screening program.
as §5

[25] = system: Alternaria label isolate; test: standard FG (fungi) screening program; conditions: read-out: Minimum Inhibitory Concentration
Protocol: as §6, §5

[26] = system: C. globosum; test: standard FG (fungi) screening program; conditions: Chaetomium globosum, read-out: Minimum Inhibitory Concentration
Protocol: as §6, §5

[27] = system: F. oxysporum; test: standard FG (fungi) screening program; conditions: Fusarium oxysporum, read-out: Minimum Inhibitory Concentration
Protocol: as §6, §5

[28] = system: M. verrucaria; test: standard FG (fungi) screening program; conditions: read-out: Minimum Inhibitory Concentration
Protocol: as §6, §5

[29] = system: P. citrinum; test: standard FG (fungi) screening program; conditions: Penicillium citrinum, read-out: Minimum Inhibitory Concentration
Protocol: as §6, §5

[30] = system: Rhizopus nigricans; test: standard FG (fungi) screening program; conditions: Rhizopus stolonifer, read-out: Minimum Inhibitory Concentration
Protocol: as §6, §5

[31] = system: Diplococcus pneumoniae 6301; test: two-fold tube dilution test; conditions: Streptococcus pneumoniae, brain-heart infusion broth and 20% horse serum, 24 hours at 37° C., read-out: Minimum Inhibitory Concentration
Protocol: as §1, §2
In the test for activity against Diplococcus pneumoniae 6301, 5 ml. portions of brain-heart infusion broth and 20% horse serum were used with 0.1 ml. of 1:100 dilution culture. The test was incubated for 24 hours at 37° C.

| Compound | MIC [1] | MIC [2] | MIC [3] | MIC [4] | MIC [5] | MIC [6] | MIC [7] | MIC [8] | MIC [9] | MIC [10] | MIC [11] | MIC [12] | MIC [13] | MIC [14] | MIC [15] | MIC [16] | MIC [17] | MIC [18] | MIC [19] | MIC [20] | further results |
| --- | --- | --- | --- | --- | --- | --- | --- | --- | --- | --- | --- | --- | --- | --- | --- | --- | --- | --- | --- | --- | --- |
| COC(CC1CC(C)C(O)C=CC=CCC(C)OC(=O)CC(O)C(OC)C1OC1OC(C)C(OC2CC(C)(O)C(OC(=O)CC(C)C)C(C)O2)C(N(C)C)C1O)OC (single isomer, unassigned) [Compound 3, 9-Dihydroniddamycin A dimethyl acetal] | 25 µg/mL (≈ 30 µM) | 50 µg/mL (≈ 60.1 µM) |  |  |  |  |  |  |  |  |  |  |  |  |  |  |  |  |  |  |  |
| COC1C(O)CC(=O)OC(C)CC=CC=CC(O)C(C)CC(CC=O)C1OC1OC(C)C(OC2CC(C)(O)C(OC(=O)CC(C)C)C(C)O2)C(N(C)C)C1O (single isomer, unassigned) [Compound 5, 9-Dihydroniddamycin A] |  |  | > 100 µg/mL | 12.5 µg/mL (≈ 15.9 µM) | 12.5 µg/mL (≈ 15.9 µM) | > 100 µg/mL | > 100 µg/mL | > 100 µg/mL | > 100 µg/mL | > 100 µg/mL | 0.78 µg/mL (≈ 0.992 µM) | > 100 µg/mL | 0.78 µg/mL (≈ 0.992 µM) | 1.56 µg/mL (≈ 1.98 µM) | 0.78 µg/mL (≈ 0.992 µM) | > 100 µg/mL | > 100 µg/mL | 6.2 µg/mL (≈ 7.89 µM) | 0.25 µg/mL (≈ 0.318 µM) | 2.5 µg/mL (≈ 3.18 µM) | MIC [21]: 0.25 µg/mL (≈ 0.318 µM); MIC [22]: 50 µg/mL (≈ 63.6 µM); MIC [23]: > 100 µg/mL; MIC [24]: > 100 µg/mL; MIC [25]: > 100 µg/mL; MIC [26]: > 100 µg/mL; MIC [27]: > 100 µg/mL; MIC [28]: > 100 µg/mL; MIC [29]: > 100 µg/mL; MIC [30]: > 100 µg/mL |
| COC(CC1CC(C)C(O)C=CC=CCC(C)OC(=O)CC(OC(C)=O)C(OC)C1OC1OC(C)C(OC2CC(C)(O)C(OC(=O)CC(C)C)C(C)O2)C(N(C)C)C1O)OC (single isomer, unassigned) [Compound 7B, 3-(O)-Acetyl-9-dihydroniddamycin A dimethyl acetal] | 100 µg/mL (≈ 114 µM) | 50 µg/mL (≈ 57.2 µM) |  |  |  |  |  |  |  |  |  |  |  |  |  |  |  |  |  |  |  |
| COC1C(OC(C)=O)CC(=O)OC(C)CC=CC=CC(O)C(C)CC(CC=O)C1OC1OC(C)C(OC2CC(C)(O)C(OC(=O)CC(C)C)C(C)O2)C(N(C)C)C1O (single isomer, unassigned) [Compound 8B, 3-(O)-Acetyl-9-Dihydroniddamycin A] |  |  | > 100 µg/mL | 25 µg/mL (≈ 30.2 µM) | 12.5 µg/mL (≈ 15.1 µM) | > 100 µg/mL | > 100 µg/mL | > 100 µg/mL | > 100 µg/mL | > 100 µg/mL | 0.78 µg/mL (≈ 0.942 µM) | > 100 µg/mL | 0.78 µg/mL (≈ 0.942 µM) | 1.56 µg/mL (≈ 1.88 µM) | 1.56 µg/mL (≈ 1.88 µM) | > 100 µg/mL | > 100 µg/mL | 6.2 µg/mL (≈ 7.49 µM) | 0.25 µg/mL (≈ 0.302 µM) | 5 µg/mL (≈ 6.04 µM) | MIC [21]: 0.5 µg/mL (≈ 0.604 µM); MIC [22]: 25 µg/mL (≈ 30.2 µM); MIC [23]: > 100 µg/mL; MIC [24]: > 100 µg/mL; MIC [25]: > 100 µg/mL; MIC [26]: > 100 µg/mL; MIC [27]: > 100 µg/mL; MIC [28]: > 100 µg/mL; MIC [29]: > 100 µg/mL; MIC [30]: > 100 µg/mL |
| COC(CC1CC(C)C(=O)C=CC=CCC(C)OC(=O)CC(O)C(OC)C1OC1OC(C)C(OC2CC(C)(O)C(OC(=O)CC(C)C)C(C)O2)C(N(C)C)C1O)OC (stereo not drawn) [Compound 2, Niddamycin dimethyl acetal] | 0.78 µg/mL (≈ 0.94 µM) | 25 µg/mL (≈ 30.1 µM) |  |  |  |  |  |  |  |  |  |  |  |  |  |  |  |  |  |  | MIC [31]: ≤ 1.56 µg/mL |
| COC(CC1CC(C)C(=O)C=CC=CCC(C)OC(=O)CC(OC(C)=O)C(OC)C1OC1OC(C)C(OC2CC(C)(O)C(OC(=O)CC(C)C)C(C)O2)C(N(C)C)C1OC(C)=O)OC (stereo not drawn) [Compound 4B, 2',3-Di-(O)-acetylniddamycin dimethyl acetal] | > 100 µg/mL | > 100 µg/mL |  |  |  |  |  |  |  |  |  |  |  |  |  |  |  |  |  |  | MIC [31]: > 100 µg/mL |
| COC(CC1CC(C)C(=O)C=CC=CCC(C)OC(=O)CC(OC(C)=O)C(OC)C1OC1OC(C)C(OC2CC(C)(O)C(OC(=O)CC(C)C)C(C)O2)C(N(C)C)C1O)OC (stereo not drawn) [Compound 6B, 3-(O)-Acetylniddamycin dimethyl acetal] | 12.5 µg/mL (≈ 14.3 µM) | 25 µg/mL (≈ 28.7 µM) |  |  |  |  |  |  |  |  |  |  |  |  |  |  |  |  |  |  |  |
| COC1C(O)CC(=O)OC(C)CC=CC=CC(=O)C(C)CC(CC=O)C1OC1OC(C)C(OC2CC(C)(O)C(OC(=O)CC(C)C)C(C)O2)C(N(C)C)C1O (stereo not drawn) [Niddamycin Base, niddamycin] |  |  | > 100 µg/mL | 12.5 µg/mL (≈ 15.9 µM) | 12.5 µg/mL (≈ 15.9 µM) | > 100 µg/mL | > 100 µg/mL | > 100 µg/mL | > 100 µg/mL | > 100 µg/mL | 0.39 µg/mL (≈ 0.497 µM) | > 100 µg/mL | 0.39 µg/mL (≈ 0.497 µM) | 0.78 µg/mL (≈ 0.995 µM) | 0.78 µg/mL (≈ 0.995 µM) | > 100 µg/mL | > 100 µg/mL | 3.1 µg/mL (≈ 3.95 µM) | 0.1 µg/mL (≈ 0.128 µM) | 1 µg/mL (≈ 1.28 µM) | MIC [21]: 0.25 µg/mL (≈ 0.319 µM); MIC [22]: 10 µg/mL (≈ 12.8 µM); MIC [23]: > 100 µg/mL; MIC [24]: > 100 µg/mL; MIC [25]: > 100 µg/mL; MIC [26]: > 100 µg/mL; MIC [27]: > 100 µg/mL; MIC [28]: > 100 µg/mL; MIC [29]: > 100 µg/mL; MIC [30]: > 100 µg/mL |
